Reference: patent US9663525B2, “Pyrazolopyrimidinyl inhibitors of ubiquitin-activating enzyme” (Millennium Pharmaceuticals, Inc., priority 2012, dated 2017)
pIC50: −log10 of the molar value.

Target: recombinant human UAE (Homo sapiens (Human), UniProt P22314)
Test: Ubiquitin Activating Enzyme (UAE) HTRF assay, human UAE
Protocol: After incubation for 120 minutes, quantification of the FRET is performed on the Pherostar (BMG).
For compounds whose values are marked with an asterisk (*), mouse UAE was used. For all other compounds, human UAE was used.

Chain of recombinant human UAE (P22314 whole entry): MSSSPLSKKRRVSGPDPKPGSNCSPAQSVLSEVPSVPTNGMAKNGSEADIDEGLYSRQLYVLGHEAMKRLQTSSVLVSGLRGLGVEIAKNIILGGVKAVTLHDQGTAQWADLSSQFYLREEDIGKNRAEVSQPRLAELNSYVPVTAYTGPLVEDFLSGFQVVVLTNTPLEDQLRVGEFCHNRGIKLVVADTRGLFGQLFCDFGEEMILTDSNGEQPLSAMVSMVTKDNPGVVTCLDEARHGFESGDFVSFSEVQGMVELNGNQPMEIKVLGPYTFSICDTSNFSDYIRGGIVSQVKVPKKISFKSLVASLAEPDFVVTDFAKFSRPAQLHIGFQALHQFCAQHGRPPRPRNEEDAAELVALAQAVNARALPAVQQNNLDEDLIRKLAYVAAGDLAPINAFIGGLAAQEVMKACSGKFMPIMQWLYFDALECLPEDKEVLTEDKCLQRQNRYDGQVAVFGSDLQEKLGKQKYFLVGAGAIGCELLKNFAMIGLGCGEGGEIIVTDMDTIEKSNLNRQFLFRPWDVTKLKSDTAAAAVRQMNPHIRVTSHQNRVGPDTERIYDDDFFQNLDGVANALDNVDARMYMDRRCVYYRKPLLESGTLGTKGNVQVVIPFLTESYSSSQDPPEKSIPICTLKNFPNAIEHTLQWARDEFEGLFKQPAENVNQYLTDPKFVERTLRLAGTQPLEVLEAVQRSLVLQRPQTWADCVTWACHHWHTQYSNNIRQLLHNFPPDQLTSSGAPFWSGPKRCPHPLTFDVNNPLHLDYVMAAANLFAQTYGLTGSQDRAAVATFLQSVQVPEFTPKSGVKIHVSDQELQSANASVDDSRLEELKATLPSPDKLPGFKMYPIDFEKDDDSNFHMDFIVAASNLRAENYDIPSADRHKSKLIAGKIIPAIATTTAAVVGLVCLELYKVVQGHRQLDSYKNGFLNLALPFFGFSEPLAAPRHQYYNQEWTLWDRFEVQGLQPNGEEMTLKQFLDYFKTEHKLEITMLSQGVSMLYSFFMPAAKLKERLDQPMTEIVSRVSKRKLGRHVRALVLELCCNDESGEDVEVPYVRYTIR

SMILES | pIC50
NS(=O)(=O)OC[C@H]1C[C@@H](Nc2ccnc3cc(-c4cccc(-c5ccccc5)c4)nn23)[C@H](O)[C@@H]1O (racemic) [Compound I-003, (rac)((1R,2R,3S,4R)-4-(2-(biphenyl-3-yl)pyrazolo[1,5-a]pyrimidin-7-ylamino)-2,3-dihydroxycyclopentyl)methyl rel-sulfamate] | > 8.00
NS(=O)(=O)OC[C@H]1C[C@@H](Nc2ccnc3cc(-c4cccc(C(F)(F)F)c4)nn23)[C@H](O)[C@@H]1O (racemic) [Compound I-007, (rac)-((1R,2R,3S,4R)-2,3-Dihydroxy-4-((2-(3-(trifluoromethyl)phenyl)pyrazolo[1,5-a]pyrimidin-7-yl)amino)cyclopentyl)methyl rel-sulfamate] | > 8.00
NS(=O)(=O)OC[C@H]1C[C@@H](Nc2cc(Cl)nc3cc(-c4ccc(Br)cc4)nn23)[C@H](O)[C@@H]1O (racemic) [Compound I-008, (rac)-((1R,2R,3S,4R)-4-(2-(4-bromophenyl)-5-chloropyrazolo[1,5-a]pyrimidin-7-ylamino)-2,3-dihydroxycyclopentyl)methyl rel-sulfamate] | 6.00 to 7.00
NS(=O)(=O)OC[C@H]1C[C@@H](Nc2cc(Cl)nc3cc(-c4cccc5ccccc45)nn23)[C@H](O)[C@@H]1O (racemic) [Compound I-009, (rac)-((1R,2R,3S,4R)-4-{[5-chloro-2-(1-naphthyl)pyrazolo[1,5-a]pyrimidin-7-yl]amino}-2,3-dihydroxycyclopentyl)methyl rel-sulfamate] | 6.00 to 7.00
NS(=O)(=O)OC[C@H]1C[C@@H](Nc2ccnc3cc(-c4cccc5c4oc4ccccc45)nn23)[C@H](O)[C@@H]1O (racemic) [Compound I-010, (rac)-((1R,2R,3S,4R)-4-(2-(dibenzo[b,d]furan-4-yl)pyrazolo[1,5-a]pyrimidin-7-ylamino)-2,3-dihydroxycyclopentyl)methyl rel-sulfamate] | > 8.00
NS(=O)(=O)OC[C@H]1C[C@@H](Nc2ccnc3cc(-c4ccc(Cl)cc4Cl)nn23)[C@H](O)[C@@H]1O (racemic) [Compound I-013, (rac)-[(1R,2R,3S,4R)-4-{[2-(2,4-dichlorophenyl)pyrazolo[1,5-a]pyrimidin-7-yl]amino}-2,3-dihydroxycylopentyl]methyl rel-sulfamate] | 7.00 to 8.00
COc1ccc(-c2cc3nc(Cl)cc(N[C@@H]4C[C@H](COS(N)(=O)=O)[C@@H](O)[C@H]4O)n3n2)cc1 (racemic) [Compound I-014, (rac)-[(1R,2R,3S,4R)-4-{[5-chloro-2-(4-methoxyphenyl)pyrazolo[1,5-a]-pyrimidin-7-yl]amino}-2,3-dihydroxycyclopentyl]methyl rel-sulfamate] | 6.00 to 7.00
CC(C)(C)c1cccc(-c2cc3nccc(N[C@@H]4C[C@H](COS(N)(=O)=O)[C@@H](O)[C@H]4O)n3n2)c1 (racemic) [Compound I-015, (rac)-((1R,2R,3S,4R)-4-((2-(3-(tert-Butyl)phenyl)pyrazolo[1,5-a]pyrimidin-7-yl)amino)-2,3-dihydroxycyclopentyl)methyl rel-sulfamate] | > 8.00
NS(=O)(=O)OC[C@H]1C[C@@H](Nc2ccnc3cc(-c4ccc5ccccc5c4)nn23)[C@H](O)[C@@H]1O (racemic) [Compound I-016, (rac)-((1R,2R,3S,4R)-2,3-dihydroxy-4-(2-(naphthalen-2-yl)pyrazolo[1,5-a]pyrimidin-7-ylamino)cyclopentyl)methyl rel-sulfamate] | > 8.00
NS(=O)(=O)OC[C@H]1C[C@@H](Nc2ccnc3cc(-c4cccc5cccnc45)nn23)[C@H](O)[C@@H]1O (racemic) [Compound I-017, (rac)-((1R,2R,3S,4R)-2,3-Dihydroxy-4-((2-(quinolin-8-yl)pyrazolo[1,5-a]pyrimidin-7-yl)amino)cyclopentyl)methyl rel-sulfamate] | > 8.00
NS(=O)(=O)OC[C@H]1C[C@@H](Nc2ccnc3cc(-c4cncc5ccccc45)nn23)[C@H](O)[C@@H]1O (racemic) [Compound I-018, (rac)-((1R,2R,3S,4R)-2,3-dihydroxy-4-(2-(isoquinolin-4-yl)pyrazolo[1,5-a]pyrimidin-7-ylamino)cyclopentyl)methyl rel-sulfamate] | > 8.00
NS(=O)(=O)OC[C@H]1C[C@@H](Nc2ccnc3cc(-c4ccc5oc6ccccc6c5c4)nn23)[C@H](O)[C@@H]1O (racemic) [Compound I-019, (rac)-((1R,2R,3S,4R)-4-(2-(dibenzo[b,d]furan-2-yl)pyrazolo[1,5-a]pyrimidin-7-ylamino)-2,3-dihydroxycyclopentyl)methyl rel-sulfamate] | > 8.00
COc1ccc(Cl)cc1-c1cc2nccc(N[C@@H]3C[C@H](COS(N)(=O)=O)[C@@H](O)[C@H]3O)n2n1 (racemic) [Compound I-020, (rac)-((1R,2R,3S,4R)-4-(2-(5-chloro-2-methoxyphenyl)pyrazolo[1,5-a]pyrimidin-7-ylamino)-2,3-dihydroxycyclopentyl)methyl rel-sulfamate] | > 8.00
Cc1ccc(Cl)cc1-c1cc2nccc(N[C@@H]3C[C@H](COS(N)(=O)=O)[C@@H](O)[C@H]3O)n2n1 (racemic) [Compound I-021, (rac)-((1R,2R,3S,4R)-4-(2-(5-chloro-2-methylphenyl)pyrazolo[1,5-a]pyrimidin-7-ylamino)-2,3-dihydroxycyclopentyl)methyl rel-sulfamate] | > 8.00
NS(=O)(=O)OC[C@H]1C[C@@H](Nc2ccnc3cc(-c4csc5ccccc45)nn23)[C@H](O)[C@@H]1O (racemic) [Compound I-022, (rac)-((1R,2R,3S,4R)-4-(2-(benzo[b]thiophen-3-yl)pyrazolo[1,5-a]pyrimidin-7-ylamino)-2,3-dihydroxycyclopentyl)methyl rel-sulfamate] | > 8.00
CC1(C)COc2c(-c3cc4nccc(N[C@@H]5C[C@H](COS(N)(=O)=O)[C@@H](O)[C@H]5O)n4n3)cccc21 (racemic) [Compound I-023, (rac)-((1R,2R,3S,4R)-4-(2-(3,3-dimethyl-2,3-dihydrobenzofuran-7-yl)pyrazolo[1,5-a]pyrimidin-7-ylamino)-2,3-dihydroxycyclopentyl)methyl rel-sulfamate] | 7.00 to 8.00
NS(=O)(=O)OC[C@H]1C[C@@H](Nc2ccnc3cc(-c4cc5ccccc5[nH]4)nn23)[C@H](O)[C@@H]1O (racemic) [Compound I-024, (rac)-((1R,2R,3S,4R)-4-(2-(1H-indol-2-yl)pyrazolo[1,5-a]pyrimidin-7-ylamino)-2,3-dihydroxycyclopentyl)methyl rel-sulfamate] | > 8.00
NS(=O)(=O)OC[C@H]1C[C@@H](Nc2ccnc3cc(-c4cnc5ccccc5c4)nn23)[C@H](O)[C@@H]1O (racemic) [Compound I-025, (rac)-((1R,2R,3S,4R)-2,3-dihydroxy-4-(2-(quinolin-3-yl)pyrazolo[1,5-a]pyrimidin-7-ylamino)cyclopentyl)methyl rel-sulfamate] | 7.00 to 8.00
NS(=O)(=O)OC[C@H]1C[C@@H](Nc2ccnc3cc(-c4cccc5cnccc45)nn23)[C@H](O)[C@@H]1O (racemic) [Compound I-027, (rac)-((1R,2R,3S,4R)-2,3-dihydroxy-4-(2-(isoquinolin-5-yl)pyrazolo[1,5-a]pyrimidin-7-ylamino)cyclopentyl)methyl rel-sulfamate] | > 8.00
NS(=O)(=O)OC[C@H]1C[C@@H](Nc2ccnc3cc(-c4cccc(Br)c4)nn23)[C@H](O)[C@@H]1O (racemic) [Compound I-028, (rac)-((1R,2R,3S,4R)-4-((2-(3-Bromophenyl)pyrazolo[1,5-a]pyrimidin-7-yl)amino)-2,3-dihydroxycyclopentyl)methyl rel-sulfamate] | > 8.00
NS(=O)(=O)OC[C@H]1C[C@@H](Nc2ccnc3cc(-c4c[nH]c5ccccc45)nn23)[C@H](O)[C@@H]1O (racemic) [Compound I-032, (rac)-[(1R,2R,3S,4R)-2,3-dihydroxy-4-{[2-(1H-indol-3-yl)pyrazolo[1,5-a]pyrimidin-7-yl]amino}cyclopentyl]methyl rel-sulfamate] | > 8.00
NS(=O)(=O)OC[C@H]1C[C@@H](Nc2ccnc3cc(-c4ccc(C(F)(F)F)c5cccnc45)nn23)[C@H](O)[C@@H]1O (racemic) [Compound I-033, (rac)-((1R,2R,3S,4R)-2,3-dihydroxy-4-(2-(5-(trifluoromethyl)quinolin-8-yl)pyrazolo[1,5-a]pyrimidin-7-ylamino)cyclopentyl)methyl rel-sulfamate] | > 8.00
NS(=O)(=O)OC[C@H]1C[C@@H](Nc2ccnc3cc(-c4ccc5ncccc5c4)nn23)[C@H](O)[C@@H]1O (racemic) [Compound I-034, (rac)-((1R,2R,3S,4R)-2,3-dihydroxy-4-(2-(quinolin-6-yl)pyrazolo[1,5-a]pyrimidin-7-ylamino)cyclopentyl)methyl rel-sulfamate] | > 8.00
C[Si](C)(C)c1cccc(-c2cc3nccc(N[C@@H]4C[C@H](COS(N)(=O)=O)[C@@H](O)[C@H]4O)n3n2)c1 (racemic) [Compound I-035, (rac)-((1R,2R,3S,4R)-2,3-dihydroxy-4-(2-(3-(trimethylsilyl)phenyl)pyrazolo[1,5-a]pyrimidin-7-ylamino)cyclopentyl)methyl rel-sulfamate] | > 8.00
NS(=O)(=O)OC[C@H]1C[C@@H](Nc2ccnc3cc(-c4cccc(-c5ccccn5)c4)nn23)[C@H](O)[C@@H]1O (racemic) [Compound I-036, (rac)-((1R,2R,3S,4R)-2,3-Dihydroxy-4-((2-(3-(pyridin-2-yl)phenyl)pyrazolo[1,5-a]pyrimidin-7-yl)amino)cyclopentyl)methyl rel-sulfamate] | > 8.00
NS(=O)(=O)OC[C@H]1C[C@@H](Nc2ccnc3cc(-c4ccc5[nH]c6ccccc6c5c4)nn23)[C@H](O)[C@@H]1O (racemic) [Compound I-037, (rac)-[(1R,2R,3S,4R)-4-{[2-(9H-carbazol-3-yl)pyrazolo[1,5-a]pyrimidin-7-yl]amino}-2,3-dihydroxycyclopentyl]methyl rel-sulfamate] | > 8.00
Cc1sc(-c2ccccc2)nc1-c1cc2nccc(N[C@@H]3C[C@H](COS(N)(=O)=O)[C@@H](O)[C@H]3O)n2n1 (racemic) [Compound I-038, (rac)-[(1R,2R,3S,4R)-2,3-dihydroxy-4-{[2-(5-methyl-2-phenyl-1,3-thiazol-4-yl)pyrazolo[1,5-a]pyrimidin-7-yl]amino}cyclopentyl]methyl rel-sulfamate] | > 8.00
